Here are results for three compounds from patent publication US20120328696A1, “ANTI-PARKINSONIAN COMPOUND ACETYLSALICYLIC ACID MALTOL ESTER” (Hutecs Korea Pharmaceutical Co., Ltd., priority 2008, published 2012).

Common to all, as to assay type: in vivo
Experiment [1] deals with tyrosine hydroxylase (TH). In words: Striatal tyrosine hydroxylase (TH) activity after MA. The note with it: p.o.; AME 50, EBS 20, rottlerin 20 mg/kg; MA 8 mg/kg i.p. x4; GPx-1 (+/+) and (−/−) mice. As for the experimental part:
(§1) The mice received four times of MA (8 mg/kg, ip) or saline as a 2 hr-time interval. Chemicals (AME, EBS, and PKC inhibitors) were administrated for 5 consecutive days (twice daily), and were given 2 times at 4 hr and 30 min before the first MA injection as shown in the experimental schedule. Animals were sacrificed at 4 hrs and 3 days after the final MA administration.
TH activity was measured according to the method of Lucock et al. with some modification (Duan et al., 2005). Briefly, striatum was lysed in 400 μl TH working solution (1-tyrosine: 300 μmol/L; FeSO4: 1 mmol/L; NaAC: 200 mmol/L; NSD-1050:500 won; DTT: 1 mmol/L; MES: 40 mmol/L, pH 5.2-5.6) with freezing-thawing repeatedly for three times. The lysate was reacted for 3 h at 25° C. The reaction was stopped by 0.4 mol/L perchloric acid, and then reactant was centrifuged at 14,000×g for 10 min. Supernatants were collected to assay the amounts of 1-dopa by HPLC-ECD. The activity of TH was expressed as that amount of 1-dopa per minute and per gram of wet tissue.

In experiment [2] the test system is glutathione peroxidase (GPx)-1. In words: Striatal GPx-1-like immunoreactivity after MA. The note with it: p.o.; AME 50, EBS 20, rottlerin 20 mg/kg; MA 8 mg/kg i.p. x4; GPx-1 (+/+) mice. As for the experimental part: as §1
Animals were sacrificed at 4 hours and 3 days after the last MA injection. They were anesthetized with 60% urethane and perfused transcardially with 50 ml of 50 mM phosphate buffered saline (PBS), followed by 50 ml of a mixture of 4% paraformaldehyde in PBS. The rate of perfusion was 50 ml/min. The brains were removed, post-fixed at 4° C. for 24 h in the same fixative and then cryoprotected in 30% sucrose in PBS. The brains were cut on a horizontal sliding microstome into 40 μm transverse free-floading sections (Kim et al., 1999).
The immunocytochemistry was performed as described previously (Kim et al., 2000a, b). Briefly, prior to incubation with the primary antibodies, sections were preincubated with 0.3% hydrogen peroxide in PBS for 30 min (to block endogenous peroxidase activity), then in PBS containing 0.4% Triton X-100 for 20 min and 1% normal serum for 20 min. The sections were then incubated for 48 h at 4° C. in primary antibody against tyrosine hydroxylase (1:500, Chemicon, Termecula, Calif., USA), GPx1 (1:500, AbFrontier, Seoul, Korea), PKC (1:200, Santa Cruz biotechnology INC, CA, USA) or F4/80 (1:50, Serotec, Raleigh, N.C., USA). The sections were further incubated with secondary biotinylated antisera (1:1000 dilution; Vector, Brulingame, Calif.) for 1 hr, and immersed in avidin-biotin-peroxidase complex (ABC Elite kit, Vector) for 1 hr. Sections were always washed three times with PBS (pH 7.4) between each incubation step. 3,3′-diaminobenzidine (DAB) was used as a chromogen.
The western blot assays was performed as described previously (Kim et al., 2003). […]

In the next experiment the test system is phospho MDM2-ser 166. In words: Striatal phospho-MDM2 expression after MA (western blot). The note with it: p.o.; AME 50, EBS 20, rottlerin 20 mg/kg; MA 8 mg/kg i.p. x4; GPx-1 (+/+) and (−/−) mice. As for the experimental part:
as §1
The western blot assays was performed as described previously (Kim et al., 2003). Tissues were homogenized in lysis buffer, containing 200 mM Tris HCl (pH 6.8), 1% SDS, 5 mM EGTA (ethylene glycol tetraacetic acid), 5 mM EDTA (ethylenediaminetetraacetic acid), 10% glycerol, 1× phosphatase inhibitor cocktail I, 1× protease inhibitor cocktail. Lysate was centrifuged at 12,000×g for 30 min and supernatant fraction was used for Western blot analysis. Proteins (20-50 ug/lane) were separated by 6%, 8%, 10% or 15% sodium dodecyl sulfate-polyacrylamide gel electrophoresis and transferred onto the PVDF membranes. Following transfer, the membranes were preincubated with 5% non-fat milk and incubated overnight at 4° C. with primary antibody against β-actin (1:50000, Sigma, St. Louis, Mo., USA), TH (1:5000, Chemicon), TH phosphor-Ser 19 (1:1000, Chemicon,), TH phosphor-Ser 31 (1:500, Chemicon), TH phosphor-Ser 40 (1:500, Chemicon), F4/80 (1:500, Serotec), GPx1 (1:2500, AbFrontier), PKC (1:5000, Santa Cruz biotechnology, Santa Cruz, Calif., USA), p53 (1:5000, Cell signaling, Beverly, Mass., USA), MDM2 (1:1000, BD Pharmingen, San Jose, Calif., USA), MDM2 phospho-Ser 166 (1:1000, cell signaling), BDNF (1:500, Chemicon), GDNF (1:250, Santa Cruz), COX-2 (1:2000, Cayman, Ann Arbor, MC, USA), IL-6 (1:2000, Abcam, Cambridge, Mass., USA), TNF-a (1:1000, R&D Systems, Mckinley place NE, NM, USA), IFN-γ (1:500, Chemicon) or Iba-1 (1:500, Wako, Osaka, Japan). And then, membranes were incubated with HRP-conjugated secondary anti-rabbit IgG (1:1000, GE healthcare, Piscataway, N.J., USA), anti-mouse IgG (1:1000, Sigma) or anti-goat IgG (1:1000, Sigma) for 2 h. […]

The subject of experiment [3] is GPx-1 (+/+)- and GPx-1 (−/−)-mice. In words: Rota-rod test after MA. The conditions noted are these: MA 8 mg/kg i.p. x4, GPx-1 (+/+) and (−/−) mice. As for the experimental part:
as §1
The apparatus (Ugo Basile model 7650, Comerio, VA, Italy) consisted of a base platform and a rotating rod with a nonslippery surface. The rod was placed at a height of 15 cm from the base. The rod, 30 cm in length, was divided into 5 equal sections by 6 opaque disks (so that the subjects cannot be distracted by one another) To assess motor performance, the mice first trained on the apparatus 2 minutes at a constant rate of 4 r.p.m. per 30 s prior to the test. The test was performed 30 minutes after training and an accelerating paradigm was applied, starting from a rate of 4 r.p.m. to a maximum speed of 40 r.p.m., then the rotation speed was kept constant at 40 r.p.m. for a maximum of 300 s. The duration for which the animal could maintain balance on the rotating drum was measured as the rotarod latency, with a maximal cut-off time of 300 s.
(In general: The rotarod test checks motor coordination on a turning rod.)

Where [4] appears, read: p.o., AME 25 or 50, EBS 10 or 20, rottlerin 10 or 20 mg/kg.

SMILES strings stand for the structures.

In the case of `CC(=O)Oc1ccccc1C(=O)Oc1c(C)occc1=O` [AME, 3-(2-methyl-4-pyronyl)-2-acetyloxybenzoate], the “effect on MA-induced decrease in TH activity” value in experiment [1] is “decrease in TH activity was attenuated”. Besides, the “effect on MA-induced decrease in striatal GPx-1-IR” value in experiment [2] is “inhibited MA-induced decrease in the GPx-1-IR”. The “effect on MA-induced decrease in phospho-MDM2 expression” value in the experiment on phospho MDM2-ser 166 is given as “significantly attenuated”. Also, the “effect on MA-induced impairment in rota-rod performance” value (from here on “effect on MA-induced impairment”) in experiment [3] (setting [4]) is “inhibited these effects in a dose-dependent manner”.
Turning to `CC(=O)c1c(O)c(C)c(O)c(Cc2c(O)c3c(c(C(=O)/C=C/c4ccccc4)c2O)OC(C)(C)C=C3)c1O` [rottlerin], the “effect on MA-induced decrease in TH activity” value in experiment [1] is recorded as “decrease in TH activity was attenuated”. Also, the “effect on MA-induced decrease in striatal GPx-1-IR” value in experiment [2] was “inhibited MA-induced decrease in the GPx-1-IR”. Also, the “effect on MA-induced decrease in phospho-MDM2 expression” value with phospho MDM2-ser 166 is “significantly attenuated”. The “effect on MA-induced impairment” value in experiment [3] (PKC inhibitors intra-striatal (chelerythrine 0.2 ug/head, rottlerin 3.0 ug/head significant)) is “attenuated the MA-behavioral impairments in a dose-dependent manner”; in experiment [3] (setting [4]), “inhibited these effects in a dose-dependent manner”.
Regarding `O=c1c2ccccc2[se]n1-c1ccccc1` [EBS, 2-phenyl-1,2-benzisoselenazol-3(2H)-one], in experiment [1], the “effect on MA-induced decrease in TH activity” value is “decrease in TH activity was attenuated”. For the same compound, in experiment [2], the “effect on MA-induced decrease in striatal GPx-1-IR” value is given as “inhibited MA-induced decrease in the GPx-1-IR”. Also, the “effect on MA-induced decrease in phospho-MDM2 expression” value in the experiment on phospho MDM2-ser 166 is “significantly attenuated”. Besides, the “effect on MA-induced impairment” value in experiment [3] (setting [4]) was “inhibited these effects in a dose-dependent manner”.
